The compounds below were run against T1, human orexin-2 (hOX2) receptor (Homo sapiens, UniProt O43614) (assay: Intracellular Ca2+ mobilization assay (FLIPR), CHO(dHFr-) cells expressing hOX2, orexin-A at EC80 as agonist). Settings: Kb=IC50/(1+[A]/EC50); CHO(dHFr-)-OX2R cells, antagonist applied 25 min before orexin-A EC80.
T1 construct: expressed in transfected cells
T1 sequence (O43614 1-444): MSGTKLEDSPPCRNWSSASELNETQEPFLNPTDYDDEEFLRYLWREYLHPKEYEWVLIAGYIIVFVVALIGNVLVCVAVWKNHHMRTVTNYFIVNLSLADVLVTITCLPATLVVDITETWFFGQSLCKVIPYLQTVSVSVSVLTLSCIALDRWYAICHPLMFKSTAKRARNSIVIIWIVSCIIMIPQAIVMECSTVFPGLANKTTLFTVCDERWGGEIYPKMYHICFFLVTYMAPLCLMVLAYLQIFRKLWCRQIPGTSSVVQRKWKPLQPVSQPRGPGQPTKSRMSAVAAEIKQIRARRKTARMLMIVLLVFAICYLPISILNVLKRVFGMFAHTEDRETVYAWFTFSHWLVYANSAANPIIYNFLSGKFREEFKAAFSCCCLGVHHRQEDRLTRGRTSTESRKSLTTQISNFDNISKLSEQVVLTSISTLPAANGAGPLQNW
Format: cell-based
Method: Intracellular Ca^2+ Mobilization Assay
The Chinese Hamster Ovary (dHFr−) mutant cell line stably expressing human orexin-1 (hOX1) or human orexin-2 (hOX2) receptors were maintained in Dulbecco's Modified Eagle Medium (1×) with GlutaMax™ 1, 4500 mg/L D-Glucose and Sodium Pyruvate (Catalog No. 31966-021, Invitrogen, Carlsbad, Calif.), 5% dialyzed fetal calf serum (Catalog No. 26400-044), 100 μg/ml penicillin and 100 μg/ml streptomycin. The cells were seeded at 5×10^4 cells/well in the poly-D-lysine treated, 96-well, black/clear-bottomed plates (Catalog No. BD356640, BD Biosciences, Palo Alto, Calif.). 24 h later, the cells were loaded for 1 h at 37° C. with 4 μM Flou-4 acetoxymethyl ester (Catalog No. F-14202, Molecular Probes, Eugene, Oreg.) in FLIPR buffer (1×HBSS, 20 mM HEPES, 2.5 mM Probenecid). Hanks' Balanced Salt Solution (HBSS) (10×) (catalog No. 14065-049) and HEPES (1M) (catalog No. 15630-056) were purchased from Invitrogen, Carlsbad, Calif. Probenecid (250 mM) (catalog No. P8761) was from Sigma, Buchs, Switzerland. The cells were washed five times with FLIPR buffer to remove excess dye and intracellular calcium mobilization, [Ca^2+]i were measured using a Fluorometric Imaging Plate Reader (FLIPR-96, Molecular Devices, Menlo Park, Calif.) as described previously (Malherbe et al., Mol. Pharmacol., 64, 823-832, 2003). Orexin A (catalog No. 1455, Toris Cookson Ltd, Bristol, UK) was used as agonist. Orexin A (50 mM stock solution in DMSO) was diluted in FLIPR buffer +0.1% BSA. The EC50 and EC80 values of orexin-A were measured daily from standard agonist concentration-response curves in CHO(dHFr−) —OX1R and —OX2R cell lines. All compounds were dissolved in 100% DMSO. Inhibition curves were determined by addition of 11 concentrations (0.0001-10 μM) of inhibitory compounds and using EC80 value of orexin-A as agonist (a concentration which gave 80% of max agonist response, determined daily). The antagonists were applied 25 min (incubation at 37° C.) before the application of the agonist. Responses were measured as peak increase in fluorescence minus basal, normalized to the maximal stimulatory effect induced by EC80 value of orexin-A or orexin-B. Inhibition curves were fitted according to the Hill equation: y=100/(1+(x/IC50)^nH), where nH=slope factor using Excel-fit 4 software (Microsoft).
Kb values were calculated according to the following equation Kb=IC50/(1+[A]/EC50) where A is the concentration of agonist added which is very close to agonist EC80 value, and IC50 and EC50 values were derived from the antagonist inhibition and orexin-A or B agonist curves, respectively.

Row | Structure (SMILES) | Kb
1 | COc1ccccc1CC(=O)N(CCc1ccc(C(F)(F)F)cc1)c1ccc(OC)c(OC)c1 [Example 14, N-(3,4-dimethoxyphenyl)-2-(2-methoxyphenyl)-N-{2-[4-(trifluoromethyl)phenyl]ethyl}acetamide] | 0.0342 µM
2 | COc1ccc(N(CCc2ccc(C(F)(F)F)cc2)C(=O)C(O)c2ccccc2OC)cc1OC (centres unmarked) [Example 17, N-(3,4-dimethoxyphenyl)-2-hydroxy-2-(2-methoxyphenyl)-N-{2-[4-(trifluoromethyl)phenyl]ethyl}acetamide] | 0.0165 µM
3 | COc1ccc(N(CCc2ccc(C(F)(F)F)cc2)C(=O)C(O)c2ccc(F)cc2)cc1OC (centres unmarked) [Example 26, N-(3,4-dimethoxyphenyl)-2-(4-fluorophenyl)-2-hydroxy-N-{2-[4-(trifluoromethyl)phenyl]ethyl}acetamide] | 0.0592 µM
4 | COc1ccc(C(O)C(=O)N(CCc2ccc(C(F)(F)F)cc2)c2ccc(OC)c(OC)c2)cc1O (centres unmarked) [Example 27, N-(3,4-dimethoxyphenyl)-2-hydroxy-2-(3-hydroxy-4-methoxyphenyl)-N-{2-[4-(trifluoromethyl)phenyl]ethyl}acetamide] | 0.0737 µM
5 | COc1ccc(N(CCc2ccc(C(F)(F)F)cc2)C(=O)C(O)c2ccc(Cl)cc2)cc1OC (centres unmarked) [Example 30, 2-(4-chlorophenyl)-N-(3,4-dimethoxyphenyl)-2-hydroxy-N-{2-[4-(trifluoromethyl)phenyl]ethyl}acetamide] | 0.0757 µM
6 | COc1ccc(N(CCc2ccc(C(F)(F)F)cc2)C(=O)C(O)c2ccccc2F)cc1OC (centres unmarked) [Example 31, N-(3,4-dimethoxyphenyl)-2-(2-fluorophenyl)-2-hydroxy-N-{2-[4-(trifluoromethyl)phenyl]ethyl}acetamide] | 0.0336 µM
7 | CNC(C(=O)N(CCc1ccc(C(F)(F)F)cc1)c1ccc(OC)c(OC)c1)c1ccccc1OC (centres unmarked) [Example 34, N-(3,4-Dimethoxy-phenyl)-2-(2-methoxy-phenyl)-2-methylamino-N-[2-(4-trifluoromethyl-phenyl)-ethyl]-acetamide] | 0.027 µM
8 | COc1ccc(N(CCc2ccc(C(F)(F)F)cc2)C(=O)C(N)c2ccccc2OC)cc1OC (centres unmarked) [Example 35, 2-Amino-N-(3,4-dimethoxy-phenyl)-2-(2-methoxy-phenyl)-N-[2-(4-trifluoromethyl-phenyl)-ethyl]-acetamide] | 0.0088 µM
9 | COc1ccccc1C(N)C(=O)N(CCc1ccc(C(F)(F)F)cc1)c1ccc2c(c1)OCO2 (centres unmarked) [Example 41] | 0.0505 µM
10 | COc1ccc(N(CCc2ccc(C(F)(F)F)cc2)C(=O)C(N)c2ccccc2OC)cc1F (centres unmarked) [Example 42] | 0.0559 µM
11 | COc1ccccc1C(N)C(=O)N(CCc1ccc(C(F)(F)F)cc1)c1ccc2c(c1)OC(F)(F)C(F)(F)O2 (centres unmarked) [Example 44, 2-Amino-2-(2-methoxy-phenyl)-N-(2,2,3,3-tetrafluoro-2,3-dihydro-benzo[1,4]dioxin-6-yl)-N-[2-(4-trifluoromethyl-phenyl)-ethyl]-acetamide] | 0.0069 µM
12 | COc1ccc(N(CCc2ccc(C(F)(F)F)cc2)C(=O)C(N)c2ccc(F)cc2)cc1OC (centres unmarked) [Example 61, 2-Amino-N-(3,4-dimethoxy-phenyl)-2-(4-fluoro-phenyl)-N-[2-(4-trifluoromethyl-phenyl)-ethyl]-acetamide] | 0.0025 µM
13 | COc1ccc(N(CCc2ccc(C(F)(F)F)cc2)C(=O)C(N)c2ccc(Cl)cc2)cc1OC (centres unmarked) [Example 62] | 0.0751 µM

Results, then the compound that gave them:

Row | Kb | Structure (SMILES)
14 | 0.0834 µM | CCOC(C(=O)N(CCc1ccc(C(F)(F)F)cc1)c1ccc(C)c(C)c1)c1ccccc1 (racemic) [Example 221, (R,S)—N-(3,4-Dimethyl-phenyl)-2-ethoxy-2-phenyl-N-[2-(4-trifluoromethyl-phenyl)-ethyl]-acetamide]
15 | 0.046 µM | COc1ccc(N(CCc2ccc(C(F)(F)F)cc2)C(=O)[C@H](N)c2ccccc2)cc1OC (single isomer, unassigned) [Example 174]
16 | 0.0226 µM | COc1ccc(N(CCc2ccc(C(F)(F)F)cc2)C(=O)[C@@H](O)c2ccccc2)cc1OC [Example 23, (2S)-N-(3,4-dimethoxyphenyl)-2-hydroxy-2-phenyl-N-{2-[4-(trifluoromethyl)phenyl]ethyl}acetamide]
17 | 0.0577 µM | COc1cccc(N(CCc2ccc(C(F)(F)F)cc2)C(=O)C(N)c2ccccc2OC)c1 (centres unmarked) [Example 38, 2-Amino-2-(2-methoxy-phenyl)-N-(3-methoxy-phenyl)-N-[2-(4-trifluoromethyl-phenyl)-ethyl]-acetamide]
18 | 0.0162 µM | COc1ccc(N(CCc2ccc(C(F)(F)F)cc2)C(=O)C(N)c2ccccc2OC)cc1Cl (centres unmarked) [Example 43, 2-Amino-N-(3-chloro-4-methoxy-phenyl)-2-(2-methoxy-phenyl)-N-[2-(4-trifluoromethyl-phenyl)-ethyl]-acetamide]
19 | 0.0018 µM | COc1ccc(N(CCc2ccc(C(F)(F)F)cc2)C(=O)C(N)c2ccccc2)cc1OC (centres unmarked) [Example 45, 2-Amino-N-(3,4-dimethoxy-phenyl)-2-phenyl-N-[2-(4-trifluoromethyl-phenyl)-ethyl]-acetamide]
20 | 0.0305 µM | CNC(C(=O)N(CCc1ccc(C(F)(F)F)cc1)c1ccc(OC)c(OC)c1)c1ccccc1 (centres unmarked) [Example 53, N-(3,4-Dimethoxy-phenyl)-2-methylamino-2-phenyl-N-[2-(4-trifluoromethyl-phenyl)-ethyl]-acetamide]
21 | 0.0275 µM | NC(C(=O)N(CCc1ccc(C(F)(F)F)cc1)c1ccc2c(c1)OCO2)c1ccccc1 (centres unmarked) [Example 58, 2-Amino-N-benzo[1,3]dioxol-5-yl-2-phenyl-N-[2-(4-trifluoromethyl-phenyl)-ethyl]-acetamide]
22 | 0.0143 µM | COc1ccc(C)c(N(CCc2ccc(C(F)(F)F)cc2)C(=O)C(N)c2ccccc2)c1 (centres unmarked) [Example 59, 2-Amino-N-(5-methoxy-2-methyl-phenyl)-2-phenyl-N-[2-(4-trifluoromethyl-phenyl)-ethyl]-acetamide]
23 | 0.0231 µM | COc1cccc(N(CCc2ccc(C(F)(F)F)cc2)C(=O)C(N)c2ccccc2)c1 (centres unmarked) [Example 60, 2-Amino-N-(3-methoxy-phenyl)-2-phenyl-N-[2-(4-trifluoromethyl-phenyl)-ethyl]-acetamide]
24 | 0.0664 µM | COc1ccc(N(CCc2ccc(C(F)(F)F)cc2)C(=O)C(N)c2cccc(Cl)c2)cc1OC (centres unmarked) [Example 63, 2-Amino-2-(3-chloro-phenyl)-N-(3,4-dimethoxy-phenyl)-N-[2-(4-trifluoromethyl-phenyl)-ethyl]-acetamide]
25 | 0.0383 µM | COc1ccc(N(CCc2ccc(C(F)(F)F)cc2)C(=O)C(N)c2ccccc2)cc1F (centres unmarked) [Example 64, 2-Amino-N-(3-fluoro-4-methoxy-phenyl)-2-phenyl-N-[2-(4-trifluoromethyl-phenyl)-ethyl]-acetamide]
26 | 0.0285 µM | COc1cc(N(CCc2ccc(C(F)(F)F)cc2)C(=O)C(N)c2ccccc2)ccc1Cl (centres unmarked) [Example 65, 2-Amino-N-(4-chloro-3-methoxy-phenyl)-2-phenyl-N-[2-(4-trifluoromethyl-phenyl)-ethyl]-acetamide]
27 | 0.013 µM | COc1ccc(N(CCc2ccc(C(F)(F)F)cc2)C(=O)C(N)c2ccccc2)cc1Cl (centres unmarked) [Example 66, 2-Amino-N-(3-chloro-4-methoxy-phenyl)-2-phenyl-N-[2-(4-trifluoromethyl-phenyl)-ethyl]-acetamide]
28 | 0.0117 µM | CCOc1ccc(N(CCc2ccc(C(F)(F)F)cc2)C(=O)C(N)c2ccccc2)cc1OCC (centres unmarked) [Example 68, 2-Amino-N-(3,4-diethoxy-phenyl)-2-phenyl-N-[2-(4-trifluoromethyl-phenyl)-ethyl]-acetamide]
29 | 0.0828 µM | Cc1ccc(N(CCc2ccc(C(F)(F)F)cc2)C(=O)C(N)c2ccccc2)cc1 (centres unmarked) [Example 69, 2-Amino-2-phenyl-N-p-tolyl-N-[2-(4-trifluoromethyl-phenyl)-ethyl]-acetamide]

— patent US20090036422A1 (priority 2007, published 2009)
